Assay results as given in US20140044656A1, “NOVEL USE” (DSM IP ASSETS B.V., priority 2011, published 2014).

Columns and labels:
[1] = tested on: Normal human melanocytes NHM (HEMn-MP, Clonetics); assay: Quantification of melanin synthesis in cell culture; type: cell-based; conditions: for total melanin content versus control (100%): three days, absorbance at 405 nm
Protocol: Normal human melanocytes NHM (HEMn-MP, Clonetics) were seeded in 96 well cell culture plates and grown to sub-confluence for two days in a mixture of M2-Medium (Clonetics) and Medium (Promocell). Culture medium was exchanged with Culture Medium containing Steviol (96%) and melanogenesis progressed for another three days at 37° C. with another medium exchange on day two. Including cell layer and culture supernatant the total melanin was extracted using 1.7M KOH with vigorous shaking at RT. The total melanin content was determined at 405 nm in an absorbance plate reader versus a control (100%)

[2] = Discoloration experiment (Pantone Color Index of aqueous solution at different pH); type: physicochemical; conditions: for Pantone Index: 1% solution in water
Protocol: Steviol (87%) was dissolved at 1 wt.-% in water and the pH adjusted to different values as shown below. At pH 9, the solution turns brown within 1 day. However, the more acidic the pH, the less discoloration was observed. The color was determined visually using the Pantone Color Index. Pantone Colours index of 1% Steviol solution in water at different pH: […]

## C=C1C[C@@]23CC[C@H]4[C@@](C)(CCC[C@@]4(C)C(=O)O)[C@@H]2CC[C@]1(O)C3 [Steviol, steviol]
[1]; 0.25-1 microM
  effect on the production of melanin in human melanocytes: clear dose dependent positive effect
[1]; 0.25 microM
  total melanin content versus control (100%): 109%
[1]; 0.5 micro M
  total melanin content versus control (100%): 124%
[1]; 1 micro M
  total melanin content versus control (100%): 130%
[1]; melanin production in human melanocytes
  potency relative to the positive control Glycyrrhizin: about 1000 times
[2]; pH 6, visual
  Pantone Index: 155
[2]; pH 6.5, visual
  Pantone Index: 155
[2]; pH 7, visual
  Pantone Index: 158
[2]; pH 9, visual
  Pantone Index: 160
[2]; 1 wt.-% in water, pH 9
  time until solution turns brown: ≤ 1 days
